Experimental data reported in patent US8404696B2, “Quinazoline-2,4-dione derivative, and medical compositions for the prophylaxis and treatment of cranial nerve disease containing the same” (Shin Poong Pharmaceutical Co., Ltd., priority 2008, dated 2013).

How the values were obtained:
[1] = system: superoxide dismutase (SOD); test: Increase of superoxide dismutase (SOD) activity in mouse brain cells; format: cell-based; conditions: 100 μg/ml
Description: ROS inhibitory effect of compounds was represented to the dose suppressing 50% of production of reactive oxygen compared to control. […] The activity of superoxide dismutase (SOD) was measured by using a kit acquired in Sigma.

[2] = system: mixed culture of nerve cells-glial cells; test: Protecting effect on NMDA-induced nerve cell death (LDH release); format: cell-based, ICR mouse; conditions: 100 μM NMDA, LDH release after 24 hours
How it was run: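 Embryonic day-14 ICR mouse cortical neurons seeded on cortical glia, Ara-C-treated, then exposed at day 12–15 for 20 min to 100 μM NMDA with compound at 1 or 2 μg/mL. LDH released 24 h later measured colorimetrically as a cell-death index.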

[3] = system: mouse brain cells; test: Inhibitory effect on ROS production in brain cells (DCF-DA, NMDA-induced); format: cell-based; conditions: dose suppressing 50% of production of reactive oxygen compared to control; mouse brain cells
[4] = system: thoracic aorta of rats; test: Relaxing effect on thoracic aorta contracted by phenylephrine (organ bath); set-up: species or system rats of SD species; conditions: 67 μg/mL, phenylephrine 0.5 μM, mean n = 3
How it was run: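 Thoracic aortic rings (2 mm) from ether-anesthetized male SD rats (250-300 g) were mounted in Krebs buffer gassed with 95% O2/5% CO2 and equilibrated at 1.0 g basal tension for 90 min. After stable contraction with phenylephrine (0.5 μM), compounds were added and relaxation recorded.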

[5] = system: SH-SY5Y cells; test: Inhibitory effect on ZnSO4-mediated cytotoxicity (MTT assay); format: cell-based, humans; conditions: compound 50 μg/ml; 600 μM zinc sulfate, 24 hours
Description: SH-SY5Y cells were cultured with 3×10^4 cell concentration in 96 well plates, and the compound (50 μg/ml) was treated. After 30 minutes, 600 μM of zinc sulfate was treated to induce toxicity for 24 hours and survival rate of cells was measured by MTT assay.

[6] = system: pentylentetrazole (PTZ)-induced convulsion; test: Anti-convulsant effect, pentylentetrazole (PTZ) test; format: in vivo; conditions: 10 mg/kg intraperitoneally, PTZ 80 mg/kg subcutaneously
How it was run: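 Compound was given intraperitoneally at 10 mg/kg before PTZ challenge. The read-outs were time to convulsion onset, time until convulsions fully disappeared, and mortality.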

[7] = system: SH-SY5Y cells; test: Inhibitory effect on H2O2-mediated cytotoxicity (MTT assay); format: cell-based, humans; conditions: 200 μM hydrogen peroxide, 24 hours
Description: SH-SY5Y cells that are oriented by nerve cell line from humans were cultured with 3×10^4 cell concentration in 96 well plate, and the sample was treated. After 30 minutes, 200 μM hydrogen peroxide was treated to induce toxicity for 24 hours. After the reaction was completed, the survival rate of cells was measured by MTT assay.

Molecule | Increase of SOD activity, compared to control [1] | Inhibitory effect of cell death by NMDA-induced excitable neurotoxicity ([2]; 1 μg/ml compound) [%] | Inhibitory effect of cell death by NMDA-induced excitable neurotoxicity ([2]; 2 μg/ml compound) [%] | ROS inhibitory effect ID50 [3] [µg/mL] | Relaxation percentage [4] [%] | inhibitory percentage, zinc-induced toxicity [5] [%] | mortality rate ([6]; (animals/total), negative control 70(17/23)) | Induction percentage of convulsion ([6]; (animals/total), negative control 100(23/23)) | Initiation time of convulsion ([6]; negative control 5.0 ± 0.7) [min] | Duration of convulsion ([6]; negative control 46.7 ± 3.3) [min] | inhibition at 67 µg/mL ([4]; Rattus norvegicus, read-out: Relaxation percentage) [%] | inhibitory percentage, oxidative toxicity induced by hydroperoxide ([7]; 5 μg/ml) [%] | inhibitory percentage, oxidative toxicity induced by hydroperoxide ([7]; 50 μg/ml) [%]
[3-(2,4-dioxo-1,4-dihydro-2H-quinazolin-3-yl)propyl]-{4-[3-(2,4-dioxo-1,4-dihydro-2H-quinazolin-3-yl)propylamino]butyl}heptanoic amide [Compound 35] | 3.4 ± 7.9 | 32.5 | 35.7 | 140.0 ± 18.6 | 42.6 | 9.1 ± 1.8 | 33(2/6) % | 100(6/6) % | 5.4 ± 1.6 | 33.3 ± 7.3 | – | – | –
CC(=O)N(CCCCN(CCCn1c(=O)[nH]c2ccccc2c1=O)C(C)=O)CCCn1c(=O)[nH]c2ccccc2c1=O [Compound 4, N-(4-{acetyl-[3-(2,4-dioxo-1,4-dihydro-2H-quinazolin-3-yl)propyl]amino}butyl)-N-[3-(2,4-dioxo-1,4-dihydro-2H-quinazolin-3-yl)propyl]acetamide] | 0.6 ± 2.2 | 22.3 | 7.4 | – | – | – | – | – | – | – | 7.7 | 2.0 ± 0.4 | 18.1 ± 2.1
